Experimental data from ChEMBL document CHEMBL3603789, “N-Lipidated Peptide Dimers: Effective Antibacterial Agents against Gram-Negative Pathogens through Lipopolysaccharide Permeabilization” (J Med Chem, 2015).
Values after ≈ are worked out from the molar mass of the structure shown. Active and inactive are the calls of the source. The rule behind the calls is not given here. Bridge positions count the residues as written; N and C are the ends. Peptide text beside a SMILES is read from it. I, II: the chains in the order shown. * marks the point of attachment. Palmitoyl = CCCCCCCCCCCCCCCC(=O)*; Myristoyl = CCCCCCCCCCCCCC(=O)*; Lauroyl = CCCCCCCCCCCC(=O)*; Hexanoyl = CCCCCC(=O)*

How the values were obtained:
[1] = Toxicity in New Zealand white rabbit erythrocytes assessed as hemolytic activity after 60 mins; assay type: cell-based, Oryctolagus cuniculus; conditions: erythrocyte, 1 h
Escherichia coli [2] = test: Antibacterial activity against Escherichia coli ATCC 25922 after 24 hrs by broth microdilution method; assay type: functional; conditions: ATCC 25922, 24 h
[3] = Self-aggregation activity of the compound using 8-(Phenylamino)-1-naphthalenesulfonic acid as fluorescent probe at 300 uM by fluorescence assay in presence of 150 mM of NaCl; assay type: physicochemical
Pseudomonas aeruginosa [4] = test: Antibacterial activity against Pseudomonas aeruginosa DM23155 after 24 hrs by broth microdilution method; assay type: functional; conditions: DM23155, 24 h
Klebsiella pneumoniae = test: Antibacterial activity against Klebsiella pneumoniae DM4299 after 24 hrs by broth microdilution method; assay type: functional; conditions: DM4299, 24 h
[5] = Induction of calcein leakage from DOPC artificial membrane at 1:32 ratio of compound to lipid by fluorescence assay; assay type: physicochemical
Pseudomonas aeruginosa [6] = test: Induction of 1-N-phenylnaphthylamine uptake in Pseudomonas aeruginosa DM23155 at 400 uM after 1 hr by fluorescence assay relative to polymyxin B; assay type: functional
[7] = Self-aggregation activity of the compound using 8-(Phenylamino)-1-naphthalenesulfonic acid as fluorescent probe at 20 uM by fluorescence assay; assay type: physicochemical
Lipopolysaccharide (LPS) [8] = test: Induction of Escherichia coli 0111:B4 LPS neutralization using p-nitroaniline assessed as concentration required to neutralize 50% after 1 hr by limulus amebocyte lysate assay
Lipopolysaccharide (LPS) [9] = test: Displacement of dansylcadaverine from Escherichia coli 0111:B4 LPS at 15 to 30 uM after 5 mins by high-throughput fluorescence displacement assay
[10] = Self-aggregation activity of the compound using 8-(Phenylamino)-1-naphthalenesulfonic acid as fluorescent probe at 100 uM by fluorescence assay; assay type: physicochemical
Pseudomonas aeruginosa [11] = test: Induction of cytoplasmic membrane depolarization in Pseudomonas aeruginosa DM23155 at 4 times MIC after 1 hr by fluorescence assay; assay type: functional, organism-based
Pseudomonas aeruginosa [12] = test: Induction of cytoplasmic membrane disruption in Pseudomonas aeruginosa DM23155 assessed as membrane integrity at 1 to 2 times MIC after 1 hr by fluorescence assay; assay type: functional
[13] = Self-aggregation activity of the compound using 8-(Phenylamino)-1-naphthalenesulfonic acid as fluorescent probe at 300 uM by fluorescence assay; assay type: physicochemical
[14] = Induction of calcein leakage from DOPE/DOPG artificial membrane at 1:32 ratio of compound to lipid by fluorescence assay; assay type: physicochemical
Escherichia coli [15] = test: Antibacterial activity against Escherichia coli ATCC 25922 after 24 hrs by checkerboard assay in presence of kanamycin; assay type: functional
Pseudomonas aeruginosa [16] = test: Antibacterial activity against Pseudomonas aeruginosa DM23155 after 24 hrs by checkerboard assay in presence of gentamicin; assay type: functional
Pseudomonas aeruginosa [17] = test: Antibacterial activity against Pseudomonas aeruginosa DM23155 after 24 hrs by checkerboard assay in presence of nalidixic acid; assay type: functional
Pseudomonas aeruginosa [18] = test: Antibacterial activity against Pseudomonas aeruginosa DM23155 after 24 hrs by checkerboard assay in presence of erythromycin; assay type: functional
Escherichia coli [19] = test: Antibacterial activity against Escherichia coli ATCC 25922 after 24 hrs by checkerboard assay in presence of gentamicin; assay type: functional
Escherichia coli [20] = test: Antibacterial activity against Escherichia coli ATCC 25922 after 24 hrs by checkerboard assay in presence of erythromycin; assay type: functional
Pseudomonas aeruginosa [21] = test: Antibacterial activity against Pseudomonas aeruginosa DM23155 after 24 hrs by checkerboard assay in presence of kanamycin; assay type: functional
Escherichia coli [22] = test: Antibacterial activity against Escherichia coli ATCC 25922 after 24 hrs by checkerboard assay in presence of streptomycin; assay type: functional
Pseudomonas aeruginosa [23] = test: Antibacterial activity against Pseudomonas aeruginosa DM23155 after 24 hrs by checkerboard assay in presence of streptomycin; assay type: functional
Escherichia coli [24] = test: Antibacterial activity against Escherichia coli ATCC 25922 after 24 hrs by checkerboard assay in presence of nalidixic acid; assay type: functional

Row | Structure (SMILES) | HC10 [1] [µg/mL] | MIC (Escherichia coli [2]) [µM] | Activity [3] | MIC (Pseudomonas aeruginosa [4]) [µM] | MIC (Klebsiella pneumoniae) [µM] | Activity [5] | Activity (Pseudomonas aeruginosa [6]) [%] | Activity [7] [%] | EC50 (Lipopolysaccharide (LPS) [8]) [µM] | Activity (Lipopolysaccharide (LPS) [9]) [%] | Activity [10] [%] | Activity (Pseudomonas aeruginosa [12]) [%] | Activity [13] | Activity [14] | also measured
1 | CCCCCCCCCCCCCCCC(=O)N[C@@H](CCCNC(=N)N)C(=O)NCC(=O)N[C@@H](CCCNC(=N)N)C(=O)N[C@@H](CCCCN)C(=O)NCC(=O)NCC(=O)N[C@@H](CCCNC(=N)N)C(=O)N[C@@H](CCCNC(=N)N)C(=O)NCCCC[C@H](NC(=O)[C@H](CCCNC(=N)N)NC(=O)[C@H](CCCNC(=N)N)NC(=O)CNC(=O)CNC(=O)[C@H](CCCCN)NC(=O)[C@H](CCCNC(=N)N)NC(=O)CNC(=O)[C@H](CCCNC(=N)N)NC(=O)CCCCCCCCCCCCCCC)C(=O)N[C@@H](CCCCN)C(=O)O (I: Palmitoyl-RGRKGGRRKK-OH / II: Palmitoyl-RGRKGGRR; amide I:9-II:C) | 64 | 10 (≈ 26 µg/mL) | Active | 10 (≈ 26 µg/mL) | 10 (≈ 26 µg/mL) | Active | 36.5 | 50 | 43 | 106 | 50 | – | – | – | –
2 | CCCCCCCCCCCCCC(=O)N[C@@H](CCCNC(=N)N)C(=O)NCC(=O)N[C@@H](CCCNC(=N)N)C(=O)N[C@@H](CCCCN)C(=O)NCC(=O)NCC(=O)N[C@@H](CCCNC(=N)N)C(=O)N[C@@H](CCCNC(=N)N)C(=O)NCCCC[C@H](NC(=O)[C@H](CCCNC(=N)N)NC(=O)[C@H](CCCNC(=N)N)NC(=O)CNC(=O)CNC(=O)[C@H](CCCCN)NC(=O)[C@H](CCCNC(=N)N)NC(=O)CNC(=O)[C@H](CCCNC(=N)N)NC(=O)CCCCCCCCCCCCC)C(=O)N[C@@H](CCCCN)C(=O)O (I: Myristoyl-RGRKGGRRKK-OH / II: Myristoyl-RGRKGGRR; amide I:9-II:C) | 82 | 10 (≈ 25.4 µg/mL) | Active | 6 (≈ 15.3 µg/mL) | 10 (≈ 25.4 µg/mL) | Active | 39.2 | 50 | 35.3 | 124 | 50 | – | – | – | –
3 | CCCCCCCCCCCC(=O)N[C@@H](CCCNC(=N)N)C(=O)NCC(=O)N[C@@H](CCCNC(=N)N)C(=O)N[C@@H](CCCCN)C(=O)N[C@H](C(=O)N[C@H](C(=O)N[C@@H](CCCNC(=N)N)C(=O)N[C@@H](CCCNC(=N)N)C(=O)NCCCC[C@H](NC(=O)[C@H](CCCNC(=N)N)NC(=O)[C@H](CCCNC(=N)N)NC(=O)[C@@H](NC(=O)[C@@H](NC(=O)[C@H](CCCCN)NC(=O)[C@H](CCCNC(=N)N)NC(=O)CNC(=O)[C@H](CCCNC(=N)N)NC(=O)CCCCCCCCCCC)C(C)C)C(C)C)C(=O)N[C@@H](CCCCN)C(=O)O)C(C)C)C(C)C (I: Lauroyl-RGRKVVRRKK-OH / II: Lauroyl-RGRKVVRR; amide I:9-II:C) | 543 | 6 (≈ 15.9 µg/mL) | – | 6 (≈ 15.9 µg/mL) | 6 (≈ 15.9 µg/mL) | Active | – | – | 29 | 130 | – | <50 | 27.6% | Active | Activity (Pseudomonas aeruginosa [11]): Active
4 | CCCCCCCCCCCC(=O)N[C@@H](CCCNC(=N)N)C(=O)NCC(=O)N[C@@H](CCCNC(=N)N)C(=O)N[C@@H](CCCCN)C(=O)NCC(=O)NCC(=O)N[C@@H](CCCNC(=N)N)C(=O)N[C@@H](CCCNC(=N)N)C(=O)NCCCC[C@H](NC(=O)[C@H](CCCNC(=N)N)NC(=O)[C@H](CCCNC(=N)N)NC(=O)CNC(=O)CNC(=O)[C@H](CCCCN)NC(=O)[C@H](CCCNC(=N)N)NC(=O)CNC(=O)[C@H](CCCNC(=N)N)NC(=O)CCCCCCCCCCC)C(=O)N[C@@H](CCCCN)C(=O)O (I: Lauroyl-RGRKGGRRKK-OH / II: Lauroyl-RGRKGGRR; amide I:9-II:C) | 517 | 6 (≈ 14.9 µg/mL) | – | 6 (≈ 14.9 µg/mL) | 6 (≈ 14.9 µg/mL) | Active | 55.9 | – | 62.8 | 126 | – | – | 62.5% | – | –
5 | CCCCCC(=O)N[C@@H](CCCNC(=N)N)C(=O)NCC(=O)N[C@@H](CCCNC(=N)N)C(=O)N[C@@H](CCCCN)C(=O)NCC(=O)NCC(=O)N[C@@H](CCCNC(=N)N)C(=O)N[C@@H](CCCNC(=N)N)C(=O)NCCCC[C@H](NC(=O)[C@H](CCCNC(=N)N)NC(=O)[C@H](CCCNC(=N)N)NC(=O)CNC(=O)CNC(=O)[C@H](CCCCN)NC(=O)[C@H](CCCNC(=N)N)NC(=O)CNC(=O)[C@H](CCCNC(=N)N)NC(=O)CCCCC)C(=O)N[C@@H](CCCCN)C(=O)O (I: Hexanoyl-RGRKGGRRKK-OH / II: Hexanoyl-RGRKGGRR; amide I:9-II:C) | > 10000 | 3 (≈ 6.96 µg/mL) | – | 3 (≈ 6.96 µg/mL) | 3 (≈ 6.96 µg/mL) | – | 10.5 | – | 413 | 86.4 | – | – | – | – | fractional inhibitory concentration index (FICI) (Escherichia coli [15]): 0.5; fractional inhibitory concentration index (FICI) (Pseudomonas aeruginosa [16]): 0.31; fractional inhibitory concentration index (FICI) (Pseudomonas aeruginosa [17]): 0.63; fractional inhibitory concentration index (FICI) (Pseudomonas aeruginosa [18]): 0.56; fractional inhibitory concentration index (FICI) (Escherichia coli [19]): 0.56; fractional inhibitory concentration index (FICI) (Escherichia coli [20]): 0.75; fractional inhibitory concentration index (FICI) (Pseudomonas aeruginosa [21]): 0.5; fractional inhibitory concentration index (FICI) (Escherichia coli [22]): 0.38; fractional inhibitory concentration index (FICI) (Pseudomonas aeruginosa [23]): 0.5; fractional inhibitory concentration index (FICI) (Escherichia coli [24]): 0.75
6 | CCCCCCCCCCCCCCCC(=O)N[C@@H](CCCNC(=N)N)C(=O)NCC(=O)N[C@@H](CCCNC(=N)N)C(=O)N[C@@H](CCCCN)C(=O)N[C@H](C(=O)N[C@H](C(=O)N[C@@H](CCCNC(=N)N)C(=O)N[C@@H](CCCNC(=N)N)C(=O)NCCCC[C@H](NC(=O)[C@H](CCCNC(=N)N)NC(=O)[C@H](CCCNC(=N)N)NC(=O)[C@@H](NC(=O)[C@@H](NC(=O)[C@H](CCCCN)NC(=O)[C@H](CCCNC(=N)N)NC(=O)CNC(=O)[C@H](CCCNC(=N)N)NC(=O)CCCCCCCCCCCCCCC)C(C)C)C(C)C)C(=O)N[C@@H](CCCCN)C(=O)O)C(C)C)C(C)C (I: Palmitoyl-RGRKVVRRKK-OH / II: Palmitoyl-RGRKVVRR; amide I:9-II:C) | 114 | 10 (≈ 27.7 µg/mL) | Active | > 40 | > 40 | Active | – | 50 | 47.9 | 151 | 50 | <50 | – | Active | –
7 | CCCCCCCCCCCCCC(=O)N[C@@H](CCCNC(=N)N)C(=O)NCC(=O)N[C@@H](CCCNC(=N)N)C(=O)N[C@@H](CCCCN)C(=O)N[C@H](C(=O)N[C@H](C(=O)N[C@@H](CCCNC(=N)N)C(=O)N[C@@H](CCCNC(=N)N)C(=O)NCCCC[C@H](NC(=O)[C@H](CCCNC(=N)N)NC(=O)[C@H](CCCNC(=N)N)NC(=O)[C@@H](NC(=O)[C@@H](NC(=O)[C@H](CCCCN)NC(=O)[C@H](CCCNC(=N)N)NC(=O)CNC(=O)[C@H](CCCNC(=N)N)NC(=O)CCCCCCCCCCCCC)C(C)C)C(C)C)C(=O)N[C@@H](CCCCN)C(=O)O)C(C)C)C(C)C (I: Myristoyl-RGRKVVRRKK-OH / II: Myristoyl-RGRKVVRR; amide I:9-II:C) | 252 | 1.5 (≈ 4.07 µg/mL) | Active | 3 (≈ 8.13 µg/mL) | 10 (≈ 27.1 µg/mL) | Active | – | 50 | 32.1 | 135 | 50 | <50 | – | Active | –
8 | CCCCCCCCCCCCCCCC(=O)N[C@@H](CCCNC(=N)N)C(=O)NCC(=O)N[C@@H](CCCNC(=N)N)C(=O)N[C@@H](CCCCN)C(=O)NCC(=O)NCC(=O)N[C@@H](CCCNC(=N)N)C(=O)N[C@@H](CCCNC(=N)N)C(=O)N[C@@H](CCCCN)C(=O)N[C@@H](CCCCN)C(=O)O (Palmitoyl-RGRKGGRRKK-OH) | 5064 | 10 (≈ 14.4 µg/mL) | – | 80 (≈ 115 µg/mL) | 80 (≈ 115 µg/mL) | – | – | – | – | – | – | – | Not Active | – | –
